Assay results taken from patent US20240101570A1 (AMGEN INC., priority 2020, published 2024).

Experiments:
[1] = system: HCT116 WT cells; test: HCT116 WT cell proliferation / viability (CellTiter-Glo, 6 days); assay type: cell-based; settings: Homo sapiens, HCT-116, 144 h, HCT116 WT cells, 6 days, CellTiter-Glo; read-out: HCT-116 WT IC50
Summary of the method: (§1)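 Viability read by CellTiter-Glo after 6-day compound exposure of MTAP-null and wild-type HCT116 cells grown in RPMI 1640 with 10% FBS. Dosing used 1:3 steps from 1 or 10 μM (8-9 points) or 1:2 steps from 10 or 50 μM (22 points); IC50 taken where fitted curve crosses 50% of control.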

[2] = system: HCT116 MTAP null cells; test: HCT116 MTAP null cell proliferation / viability (CellTiter-Glo, 6 days); assay type: cell-based; settings: HCT116-MTAP null, 144 h, HCT116 MTAP null cells, 6 days, CellTiter-Glo; read-out: HCT-116 MTAP null IC50
Summary of the method: as §1

Row | IC50 [1] [nM] | IC50 [2] [nM] | Structure (SMILES)
1 | 2010 | 57 | CN(Cc1ccc(C(F)(F)F)cc1)C(=O)c1ccc2nc(N)c3cnn(C)c3c2c1 [Example 543, 4-amino-N,1-dimethyl-N-(4-(trifluoromethyl)benzyl)-1H-pyrazolo[4,3-c]quinoline-8-carboxamide]
2 | 2320 | 56 | CN(Cc1ccc(C(F)(F)F)cc1)C(=O)c1cc2c(cn1)nc(N)c1cnn(C)c12 [Example 544, 4-amino-N,1-dimethyl-N-(4-(trifluoromethyl)benzyl)-1H-pyrazolo[4,3-c][1,7]naphthyridine-8-carboxamide]
3 | 140 | 7 | CCN(Cc1ccc(C2CC2)cn1)C(=O)c1cc2c(cc1F)nc(N)c1cnn(C)c12 [Example 545, 4-amino-N-((5-cyclopropyl-2-pyridinyl)methyl)-N-ethyl-7-fluoro-1-methyl-1H-pyrazolo[4,3-c]quinoline-8-carboxamide]
4 | 976 | 19 | CCN(Cc1ccc(C(F)(F)F)cn1)C(=O)c1ccc2nc(N)c3cnn(C)c3c2c1 [Example 546, 4-amino-N-ethyl-1-methyl-N-((5-(trifluoromethyl)-2-pyridinyl)methyl)-1H-pyrazolo[4,3-c]quinoline-8-carboxamide]
5 | 24500 | 668 | CCN(Cc1ccc(C(F)(F)F)cn1)C(=O)c1ccc2nc(N)c3c(C)noc3c2c1 [Example 547, 4-amino-N-ethyl-3-methyl-N-((5-(trifluoromethyl)-2-pyridinyl)methyl)[1,2]oxazolo[4,5-c]quinoline-8-carboxamide]
6 | 6870 | 78 | CCN(Cc1ccc(C(F)(F)F)nn1)C(=O)c1ccc2nc(N)c3cnn(C)c3c2c1 [Example 548, 4-amino-N-ethyl-1-methyl-N-((6-(trifluoromethyl)-3-pyridazinyl)methyl)-1H-pyrazolo[4,3-c]quinoline-8-carboxamide]
7 | 487 | 20 | CCN(Cc1ccc(C(F)(F)F)cn1)C(=O)c1cc2c(cn1)nc(N)c1cnn(C)c12 [Example 549, 4-amino-N-ethyl-1-methyl-N-((5-(trifluoromethyl)-2-pyridinyl)methyl)-1H-pyrazolo[4,3-c][1,7]naphthyridine-8-carboxamide]
8 | 1800 | 66 | CCN(Cc1ccc(C(F)(F)F)nn1)C(=O)c1cc2c(cn1)nc(N)c1cnn(C)c12 [Example 550, 4-amino-N-ethyl-1-methyl-N-((6-(trifluoromethyl)-3-pyridazinyl)methyl)-1H-pyrazolo [4,3-c][1,7]naphthyridine-8-carboxamide]
9 | 5570 | 125 | CCN(Cc1ccc(C(F)(F)F)nn1)C(=O)c1ccc2nc(N)c3c(c2c1)CO[C@@H]3C [Example 551, (3R)-4-amino-N-ethyl-3-methyl-N-((6-(trifluoromethyl)-3-pyridazinyl)methyl)-1,3-dihydrofuro[3,4-c]quinoline-8-carboxamide]
10 | 1880 | 25 | CN(Cc1ccc(C(F)(F)F)cc1)C(=O)c1cc2c(cc1F)nc(N)c1cnn(C)c12 [Example 552, 4-amino-7-fluoro-N,1-dimethyl-N-(4-(trifluoromethyl)benzyl)-1H-pyrazolo[4,3-c]quinoline-8-carboxamide]
11 | 12400 | 247 | CCN(Cc1ccc(C(F)(F)F)cn1)C(=O)c1cc2c(cn1)nc(N)c1c(C)nn(C)c12 [Example 553, 4-amino-N-ethyl-1,3-dimethyl-N-((5-(trifluoromethyl)-2-pyridinyl)methyl)-1H-pyrazolo[4,3-c][1,7]naphthyridine-8-carboxamide]
12 | 181 | 8 | CCN(Cc1ccc(C(F)(F)F)cn1)C(=O)c1cc2c(cc1F)nc(N)c1cnn(C)c12 [Example 554, 4-amino-N-ethyl-7-fluoro-1-methyl-N-((5-(trifluoromethyl)-2-pyridinyl)methyl)-1H-pyrazolo[4,3-c]quinoline-8-carboxamide]
13 | 2040 | 23 | CCN(Cc1ccc(C(F)(F)F)nn1)C(=O)c1cc2c(cc1F)nc(N)c1cnn(C)c12 [Example 555, 4-amino-N-ethyl-7-fluoro-1-methyl-N-((6-(trifluoromethyl)-3-pyridazinyl)methyl)-1H-pyrazolo[4,3-c]quinoline-8-carboxamide]
14 | 458 | 14 | CCN(Cc1ccc(C(F)(F)F)cn1)C(=O)c1cc2c3c(c(N)nc2cc1F)[C@@H](C)OC3 [Example 556, (3R)-4-amino-N-ethyl-7-fluoro-3-methyl-N-((5-(trifluoromethyl)-2-pyridinyl)methyl)-1,3-dihydrofuro[3,4-c]quinoline-8-carboxamide]
15 | 12300 | 375 | CCN(Cc1ccc(C(F)(F)F)cn1)C(=O)c1cc2c3c(c(N)nc2cc1F)[C@H](C)OC3 [Example 557, (3S)-4-amino-N-ethyl-7-fluoro-3-methyl-N-((5-(trifluoromethyl)-2-pyridinyl)methyl)-1,3-dihydrofuro[3,4-c]quinoline-8-carboxamide]
16 | 421 | 19 | CN(Cc1ccc(C(F)(F)F)cc1)C(=O)c1cc2c(cc1Cl)nc(N)c1cnn(C)c12 [Example 558, 4-amino-7-chloro-N,1-dimethyl-N-(4-(trifluoromethyl)benzyl)-1H-pyrazolo[4,3-c]quinoline-8-carboxamide]
17 | 1180 | 30 | CCN(Cc1ccc(C(F)(F)F)nn1)C(=O)c1cc2c3c(c(N)nc2cc1F)[C@@H](C)OC3 [Example 559, (3R)-4-amino-N-ethyl-7-fluoro-3-methyl-N-((6-(trifluoromethyl)-3-pyridazinyl)methyl)-1,3-dihydrofuro[3,4-c]quinoline-8-carboxamide]
18 | 4140 | 56 | CCN(Cc1ccc(C(F)(F)F)cn1)C(=O)c1cc2c(cc1F)nc(N)c1c(C)nn(C)c12 [Example 560, 4-amino-N-ethyl-7-fluoro-1,3-dimethyl-N-((5-(trifluoromethyl)-2-pyridinyl)methyl)-1H-pyrazolo[4,3-c]quinoline-8-carboxamide]
19 | 5330 | 89 | CN(Cc1ccc(C(F)(F)C(F)(F)F)cc1)C(=O)c1ccc2nc(N)c3cnn(C)c3c2c1 [Example 561, 4-amino-N,1-dimethyl-N-(4-(pentafluoroethyl)benzyl)-1H-pyrazolo[4,3-c]quinoline-8-carboxamide]
20 | 3530 | 86 | CN(Cc1ccc(C(F)(F)C(F)(F)F)cc1)C(=O)c1cc2c(cn1)nc(N)c1cnn(C)c12 [Example 562, 4-amino-N,1-dimethyl-N-(4-(pentafluoroethyl)benzyl)-1H-pyrazolo[4,3-c][1,7]naphthyridine-8-carboxamide]
21 | 2080 | 28 | CN(Cc1ccc(C(F)(F)C(F)(F)F)cc1)C(=O)c1cc2c(cc1F)nc(N)c1cnn(C)c12 [Example 563, 4-amino-7-fluoro-N,1-dimethyl-N-(4-(pentafluoroethyl)benzyl)-1H-pyrazolo[4,3-c]quinoline-8-carboxamide]
22 | 925 | 21 | CCN(Cc1ccc(S(F)(F)(F)(F)F)cc1)C(=O)c1ccc2nc(N)c3cnn(C)c3c2c1 [Example 564, 4-amino-N-ethyl-1-methyl-N-(4-(pentafluoro-lambda~6~- sulfanyl)benzyl)-1H-pyrazolo[4,3-c]quinoline-8-carboxamide]
23 | 653 | 19 | CCN(Cc1ccc(S(F)(F)(F)(F)F)cc1)C(=O)c1cc2c(cn1)nc(N)c1cnn(C)c12 [Example 565, 4-amino-N-ethyl-1-methyl-N-(4-(pentafluoro-lambda~6~- sulfanyl)benzyl)-1H-pyrazolo[4,3-c][1,7]naphthyridine-8-carboxamide]
24 | 181 | 13 | CCN(Cc1ccc(S(F)(F)(F)(F)F)cc1)C(=O)c1cc2c(cc1F)nc(N)c1cnn(C)c12 [Example 566, 4-amino-N-ethyl-7-fluoro-1-methyl-N-(4-(pentafluoro-lambda~6~-sulfanyl)benzyl)-1H-pyrazolo[4,3-c]quinoline-8-carboxamide]
25 | 6790 | 90 | CN(Cc1ccc(C(F)(F)F)cn1)C(=O)c1ccc2nc(N)c3cnn(C)c3c2c1 [Example 567, 4-amino-N,1-dimethyl-N-((5-(trifluoromethyl)-2-pyridinyl)methyl)-1H-pyrazolo[4,3-c]quinoline-8-carboxamide]
26 | 5390 | 91 | CN(Cc1ccc(C(F)(F)F)cn1)C(=O)c1cc2c(cn1)nc(N)c1cnn(C)c12 [Example 568, 4-amino-N,1-dimethyl-N-((5-(trifluoromethyl)-2-pyridinyl)methyl)-1H-pyrazolo[4,3-c][1,7]naphthyridine-8-carboxamide]
27 | 3890 | 31 | Cn1ncc2c(N)nc3ccc(C(=O)N(Cc4ccc(C(F)(F)F)cn4)C4CC4)cc3c21 [Example 569, 4-amino-N-cyclopropyl-1-methyl-N-((5-(trifluoromethyl)-2-pyridinyl)methyl)-1H-pyrazolo[4,3-c]quinoline-8-carboxamide]
28 | 329 | 757 | Nc1nc2cc(F)c(C(=O)N(Cc3ccc(C(F)(F)F)cn3)C3CC3)cc2c2c1cnn2CC(F)(F)F [Example 570, 4-amino-N-cyclopropyl-7-fluoro-1-(2,2,2-trifluoroethyl)-N-((5-(trifluoromethyl)-2-pyridinyl)methyl)-1H-pyrazolo[4,3-c]quinoline-8-carboxamide]
29 | 4930 | 71 | CN(Cc1ccc(C(F)(F)F)nn1)C(=O)c1cc2c(cc1F)nc(N)c1cnn(C)c12 [Example 571, 4-amino-7-fluoro-N,1-dimethyl-N-((6-(trifluoromethyl)-3-pyridazinyl)methyl)-1H-pyrazolo[4,3-c]quinoline-8-carboxamide]
